The nature of data set [1]: rat male reproductive tissue toxicity study. It counts as in vivo. To be noted: for decreases in the testes weight (as a percentage of body weight): dosed at 300 mpk PO for 5 days; for decreases in testes weight: rat male reproductive tissue toxicity study. The method, then:
In some embodiments, male reproductive tissue toxicity can be assessed in suitable in vivo models. In some embodiments, male reproductive tissue toxicity is assessed by monitoring any decreases in the testes weight and/or epididymis weight.

A further data set concerns the target human autotaxin (ATX) (Homo sapiens (Human), UniProt Q13822). As to the kind of experiment: Human autotaxin assay (choline release from LPC, Hep3B conditioned media). It counts as biochemical. As to conditions: concentrated conditioned media from Hep3B cells, LPC substrate. As to the method: ATX activity is assayed in concentrated conditioned media from Hep3B human hepatocellular carcinoma cells by measuring the amount of choline released from the substrate, lysophosphatidylcholine (LPC) as it is cleaved to LPA. Conditioned media is collected from confluent Hep3B cells and concentrated 20-fold using Centriprep-30 filter devices (Millipore). […] 100 μl of a color mix containing 4.5 mM 4-aminoantipyrine, 2.7 mM N-ethyl-N-(2-hydroxy-3-sulfopropyl)-m-toluidine, 21 units/ml horseradish peroxidase and 3 units/ml choline oxidase in 50 mM Tris, pH 8, 4.5 mM MgCl2 is added and the incubation continued for 15 minutes at room temperature before reading the absorbance at 555 nm.

As usually defined, the IC50 is the midpoint of a concentration-inhibition curve. Lower therefore signals greater potency. As for `O=C(O)CCCN1C(=O)C2Cc3c(n(Cc4ccc(F)cc4)c4ccccc34)CN2C1=O` (racemic) [Compound 1-1, 4-(6-(4-fluorobenzyl)-1,3-dioxo-11,11a-dihydro-1H-imidazo[1′,5′:1,6]pyrido[3,4-b]indol-2(3H,5H,6H)-yl)butanoic acid], in data set [1], the “decreases in the testes weight (as a percentage of body weight)” value is “no decreases in the testes weight” and the “decreases in testes weight” value was “did not exhibit the same effects”. The molecule further had an IC50 against human autotaxin (ATX) of under 500 nM.
Take `O=C(O)CCN1C(=O)[C@@H]2Cc3c(n(Cc4ccc(F)cc4)c4ccccc34)CN2C1=O` [Compound 1-5, (S)-3-(6-(4-fluorobenzyl)-1,3-dioxo-5,6,11,11a-tetrahydro-1H-imidazo[1′,5′:1,6]pyrido[3,4-b]indol-2(3H)-yl)propanoic acid]: in data set [1], the “decreases in testes weight” value is on record as “undesired decreases in testes weight”.
As for `O=C1NC(=O)N2Cc3c(c4ccccc4n3Cc3ccc(F)cc3)CC12` (racemic) [Compound 1-15, 6-(4-fluorobenzyl)-5,6,11,11a-tetrahydro-1H-imidazo[1′,5′:1,6]pyrido[3,4-b]indole-1,3(2H)-dione], in data set [1], the “decreases in the testes weight (as a percentage of body weight)” value is listed as “no decreases in the testes weight” and the “decreases in testes weight” value is reported as “did not exhibit the same effects”. At human autotaxin (ATX), this molecule yielded an IC50 of under 500 nM.
Take `COc1ccc(Cn2c3c(c4ccccc42)C[C@H]2C(=O)N(CCC(=O)O)C(=O)N2C3)cc1` [Compound 1-131, (S)-3-(6-(4-methoxybenzyl)-1,3-dioxo-11,11a-dihydro-1H-imidazo[1′,5′:1,6]pyrido[3,4-b]indol-2(3H,5H,6H)-yl)propanoic acid]: on human autotaxin (ATX), the half-inhibitory concentration (IC50) is under 500 nM.
